The source of these data is PubChem BioAssay (NCI).

Each structure is given as a SMILES string. Several values for one entry are separate records, joined by “and”; a condition that tells them apart may be missing. Equal entries are not always repeated.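 Test compounds were applied to cells in 96-well plates for 48 hours at 5 doses. Here, GI50 denotes the concentration required for 50% inhibition of growth. The concentration for full growth arrest is given as TGI.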 Bounds are passed on as bounds.

Common to all, as to assay: inhibition of tumour cell growth, NCI panel, 48 h
Test [1] has as its system 786-0 renal.
Test [2] deals with A549 NSCLC.
The subject of test [3] is COLO 205 colon.
Test [4] has as its system HCC-2998 colon.
Test [5] deals with KM12 colon.
In test [6] the test system is SF-268 CNS.
The subject of test [7] is SF-539 CNS.
For test [8], the system named is SK-MEL-2 melanoma.
For test [9], the system named is SNB-75 CNS.
The subject of test [10] is TK-10 renal.

Take `O=C(O)c1ccc2c(c1)CCCC(c1ccc(Cl)cc1Cl)=C2c1ccc(O[C@H]2CCN(CCCF)C2)cc1`: the GI50 in test [1] was 12.9 µM; in [2], 6.7 µM; in test [3], 14.9 µM; in test [4], 13.6 µM; in test [5], 7.29 µM; in test [6], 12.1 µM. For the same compound, the GI50 was 14.1 µM in test [7], 14300 nM in test [8], 12.1 µM in test [9] and 13.4 µM in [10]. For the same compound, the TGI in test [1] worked out at 28 µM; in test [2] it was 24.1 µM; in test [3], 33.7 µM; in test [4], 27.9 µM; in [5], 20.3 µM; in test [6], 28.5 µM. Besides, the TGI was found to be 27.5 µM in test [7], 30.6 µM in [8], 25.3 µM in test [9] and 27.6 µM in [10].

Take `COc1cc2ncnc(Nc3ccc(F)c(Cl)c3)c2cc1NC(=O)/C=C/CN1CCCCC1`: the GI50 was 1.5 µM and 1.29 µM in test [1]; 1.27 µM and 1.65 µM in test [2]; 1.68 µM and 2 µM in test [3]; 1.97 µM and 1.75 µM in [4]; 2.17 µM and 2.78 µM in test [5]; 1.5 µM and 1.42 µM in test [6]. For the same compound, the GI50 was 1.63 µM and 1.56 µM in test [7]; 1810 nM and 1720 nM in test [8]; 1.03 µM and 1.25 µM in test [9]; < 0.01 µM and 0.00151 µM in test [10]. Besides, the TGI is 2.98 µM and 2.75 µM in [1]; 3.71 µM and > 8.03 µM in test [2]; 3.43 µM and 4.18 µM in test [3]; 4.38 µM and 4.29 µM in test [4]; 4.88 µM and > 9.06 µM in test [5]; 3.99 µM and 4.73 µM in [6]. The TGI in test [7] is 3.08 µM and 3.03 µM; in test [8], 3.52 µM and 3.39 µM; in [9] it was 6 µM and 6.47 µM; in test [10], 1.68 µM and 2.3 µM.

Take `OCCNc1ncnc2c1ncn2Cc1cccc(COc2cccc(OCc3cccc(Cn4cnc5c(NCCO)ncnc54)c3)c2)c1`: the GI50 in test [1] was 15.5 µM; in test [2], 24.9 µM; in test [3] it was 13.5 µM; in test [4], 15.1 µM; in test [5], 13.3 µM; in [6] it was 16.4 µM. In addition, the GI50 in [7] is 11.5 µM; in [8], 16000 nM; in test [9], 12.3 µM; in test [10] it was 14.7 µM. Moreover, the TGI came to 30.3 µM in test [1]; 50.7 µM in [2]; 32.2 µM in test [3]; 33.6 µM in test [4]; 38.8 µM in test [5]; 32.7 µM in test [6]. For the same compound, the TGI in test [7] amounted to 25.4 µM; in test [8], 35.2 µM; in test [9], 27.4 µM; in test [10], 29.9 µM.

With `C[C@]12CCCC(=O)C1(O)C[C@H](C(=O)O)CC2` (stereo not given in full), the TGI in test [1], in test [2], in [3], in [4], in test [5] and in test [6] was over 100 µM each time. Moreover, the TGI in test [7], in test [8], in test [9] and in [10] was over 100 µM each time.

As for `CC1=C(C(=O)Nc2cccc(Cl)c2)C(c2ccccc2F)C(C(=O)Nc2cccc(Cl)c2)=C(C)N1`, the TGI in [1] was determined as 32.2 µM; in [2], 40.6 µM; in test [3], 26.3 µM; in test [4], 21 µM; in test [5], 21 µM; in [6], 36.8 µM. Also, the TGI stood at 30.4 µM in test [7], 27.1 µM in [8], 54.9 µM in test [9] and 68.2 µM in [10].

As for `NCCCCNc1ccc2c(=O)[nH][nH]c(=O)c2c1`, the TGI in test [1], in test [2], in test [3], in test [4], in [5] and in test [6] was over 100 µM in each case. Also, the TGI in test [7], in test [8], in [9] and in test [10] was over 100 µM each time.

For `CC[C@]1(O)C(=O)OCc2c1cc1n(c2=O)Cc2cc3c(N)cccc3nc2-1`, the TGI in test [1], in test [2], in test [3], in test [4], in test [5] and in [6] was over 100 µM throughout. For the same compound, the TGI in test [7] is over 100 µM; in test [8], over 100 µM; in [9] it was 99.1 µM; in [10] it was over 100 µM.

Take `CC(C)c1cccc(C(C)C)c1NC(=O)/C(CC(=O)CC(c1ccccc1)c1c(O)c2ccccc2oc1=O)=N/O` (stereo not given): the TGI in [1], in test [2], in test [3], in test [4], in test [5] and in test [6] was over 100 µM each time. Further, the TGI in test [7], in [8], in test [9] and in test [10] was over 100 µM throughout.

On to `Nc1ccc(C(=O)CC(N)C(=O)O)cc1O` (stereo not given), for which the TGI in [1], in [2], in test [3], in test [4], in [5] and in [6] was over 100 µM each time. Further, the TGI in [7], in test [8], in [9] and in test [10] was over 100 µM in each case.

`NC(=O)c1cc2c3ccccc3ccn2c1-c1ccccc1`: the GI50 was 0.0775 µM in test [1]; 0.0969 µM in test [2]; 0.454 µM in test [3]; 0.542 µM in test [4]; 0.0396 µM in test [5]; 0.0759 µM in test [6]. For the same compound, the GI50 in test [7] was 0.0248 µM; in test [8] it was 883 nM; in test [9], 0.758 µM; in test [10] it was 0.719 µM. Moreover, the TGI was found to be 13.6 µM in test [1]; 9.82 µM in test [2]; 2.31 µM in test [3]; 9.55 µM in test [4]; 3.88 µM in test [5]; 13.4 µM in test [6]. The TGI is 0.0716 µM in test [7], 40.9 µM in test [8], over 46.9 µM in test [9] and 24 µM in [10].

`COC1C2C=CC(C2)[C@H]1[N+](=O)[O-]` (stereo not given in full): the TGI in [1], in test [2], in test [3], in test [4], in test [5] and in [6] was over 100 µM in each case. Besides, the TGI in test [7], in test [8], in test [9] and in test [10] was over 100 µM each time.

For the compound `C/C=C1\NC(=O)[C@H]2CSSCCC=C[C@H](CC(=O)N[C@H](C(C)C)C(=O)N2)OC(=O)[C@H](C(C)C)NC1=O`, the GI50 in test [1] was < 0.01 µM and 0.000554 µM; in test [2], under 0.01 µM; in [3] it was < 0.01 µM and 0.000172 µM; in test [4], 0.000813 µM; in test [5], under 0.01 µM; in test [6] it was under 0.01 µM. Moreover, the GI50 was under 0.01 µM in test [7]; < 10 nM and 0.0954 nM in test [8]; under 0.0104 µM in test [9]; under 0.01 µM in test [10]. Besides, the TGI in test [2] was < 0.012 µM and 0.0205 µM and 0.0185 µM; in [3], < 0.01 µM and 0.000811 µM; in [4], < 0.01 µM and 0.00448 µM; in [6], 0.0206 µM and 0.0401 µM; in test [7] it was 0.179 µM and 0.051 µM and 0.0469 µM.

Turning to `N.N.N.N.O=C([O-])C(Cl)Cl.O=C([O-])C(Cl)Cl.[Co+3].[O-][Cl+3]([O-])([O-])[O-]`, the GI50 in test [1], in test [2], in [3], in test [4], in test [5] and in test [6] was over 100 µM in each case. Besides, the GI50 in test [7] was over 100 µM; in test [8] it was over 100000 nM; in test [9], over 100 µM; in test [10], over 100 µM. The TGI in [1], in [2], in test [3], in [4], in test [5] and in test [6] was over 100 µM throughout. Further, the TGI in [7], in [8], in [9] and in [10] was over 100 µM each time.
